From ChEMBL document CHEMBL1201862, “PubChem BioAssay data set” (2004)
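Assay format: 96-well plates, 48-hour exposure. GI50 marks 50% less growth.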 Activity calls are given as the source filed them. Cut-off read from the data, not from the text of the source: active = GI50 up to about 1.1 µM and inactive = higher.

How the values were obtained:
Experiment in all cases: DTP human tumour cell line panel, 48 h
RPMI-8226 = system: RPMI-8226
NCI-H522 = system: NCI-H522
DLD-1 = system: DLD-1
TK-10 = system: TK-10
UACC-62 = system: UACC-62
SNB-78 = system: SNB-78
OVCAR-5 = system: OVCAR-5
MOLT-4 = system: MOLT-4
OVCAR-4 = system: OVCAR-4
SF-268 = system: SF-268
786-0 = system: 786-0
KM12 = system: KM12
SF-295 = system: SF-295
KM-20L2 = system: KM-20L2
SNB-19 = system: SNB-19
LXFL 529 = system: LXFL 529
NCI-H460 = system: NCI-H460
Malme-3M = system: Malme-3M
SW-620 = system: SW-620
SK-MEL-2 = system: SK-MEL-2
CAKI-1 = system: CAKI-1
RXF 393 = system: RXF 393
OVCAR-3 = system: OVCAR-3
SK-OV-3 = system: SK-OV-3
U-251 = system: U-251
DMS-273 = system: DMS-273
A549 = system: A549
NCI-H23 = system: NCI-H23
UO-31 = system: UO-31
NCI-H226 = system: NCI-H226
DMS-114 = system: DMS-114
HCC 2998 = system: HCC 2998
SN12C = system: SN12C
XF498 = system: XF498
SK-MEL-28 = system: SK-MEL-28
SNB-75 = system: SNB-75
HOP-62 = system: HOP-62
ACHN = system: ACHN
SR = system: SR
IGROV-1 = system: IGROV-1
M14 = system: M14
HCT-15 = system: HCT-15
CCRF-CEM = system: CCRF-CEM
HL-60 = system: HL-60
SK-MEL-5 = system: SK-MEL-5
M19-MEL = system: M19-MEL
HCT-116 = system: HCT-116
COLO 205 = system: COLO 205
HT-29 = system: HT-29
OVCAR-8 = system: OVCAR-8
UACC-257 = system: UACC-257
HOP-18 = system: HOP-18
K562 = system: K562
EKVX = system: EKVX
LOX IMVI = system: LOX IMVI
HOP-92 = system: HOP-92
SF-539 = system: SF-539
A498 = system: A498

CCOC(=O)C1(C#N)C(c2ccccc2)CC(O)(c2ccc(Cl)cc2)C(C(=O)c2ccc(Cl)cc2)C1c1ccccc1 (stereo unspecified)
GI50 (RPMI-8226): 76.6 µM (inactive)
GI50 (NCI-H522): 35 µM (inactive)
GI50 (DLD-1): > 100 µM (inactive)
GI50 (TK-10): > 100 µM (inactive)
GI50 (UACC-62): > 100 µM (inactive)
GI50 (SNB-78): 82.4 µM (inactive)
GI50 (OVCAR-5): > 100 µM (inactive)
GI50 (MOLT-4): 80.4 µM (inactive)
GI50 (OVCAR-4): > 100 µM (inactive)
GI50 (SF-268): > 100 µM (inactive)
GI50 (786-0): > 100 µM (inactive)
GI50 (KM12): 34 µM (inactive)
GI50 (SF-295): 41 µM (inactive)
GI50 (KM-20L2): > 100 µM (inactive)
GI50 (SNB-19): 34 µM (inactive)
GI50 (LXFL 529): 69.5 µM (inactive)
GI50 (NCI-H460): > 100 µM (inactive)
GI50 (Malme-3M): > 100 µM (inactive)
GI50 (SW-620): > 100 µM (inactive)
GI50 (SK-MEL-2): > 100 µM (inactive)
GI50 (CAKI-1): > 100 µM (inactive)
GI50 (RXF 393): 37.8 µM (inactive)
GI50 (OVCAR-3): > 100 µM (inactive)
GI50 (SK-OV-3): 38.6 µM (inactive)
GI50 (U-251): > 10 µM (inactive)
GI50 (DMS-273): 67.1 µM (inactive)
GI50 (A549): > 100 µM (inactive)
GI50 (NCI-H23): > 100 µM (inactive)
GI50 (UO-31): > 100 µM (inactive)
GI50 (NCI-H226): > 100 µM (inactive)
GI50 (DMS-114): > 100 µM (inactive)
GI50 (HCC 2998): > 100 µM (inactive)
GI50 (SN12C): > 100 µM (inactive)
GI50 (XF498): 65.9 µM (inactive)
GI50 (SK-MEL-28): > 100 µM (inactive)
GI50 (SNB-75): 21.1 µM (inactive)
GI50 (HOP-62): > 100 µM (inactive)
GI50 (ACHN): > 100 µM (inactive)
GI50 (SR): > 100 µM (inactive)
GI50 (IGROV-1): > 100 µM (inactive)
GI50 (M14): > 100 µM (inactive)
GI50 (HCT-15): > 100 µM
GI50 (CCRF-CEM): > 100 µM (inactive)
GI50 (HL-60): > 100 µM (inactive)
GI50 (SK-MEL-5): > 100 µM (inactive)
GI50 (M19-MEL): > 100 µM (inactive)
GI50 (HCT-116): > 100 µM (inactive)
GI50 (COLO 205): > 100 µM (inactive)
GI50 (HT-29): > 100 µM (inactive)
GI50 (OVCAR-8): > 100 µM (inactive)
GI50 (UACC-257): > 100 µM (inactive)
GI50 (HOP-18): > 100 µM (inactive)
GI50 (K562): > 10 µM (inactive)
GI50 (EKVX): 52.2 µM (inactive)
GI50 (LOX IMVI): > 100 µM (inactive)

CC1=C(C(=O)NCc2ccccc2)C(c2ccco2)C(C(=O)NCc2ccccc2)=C(C)N1
GI50 (RPMI-8226): > 100 µM (inactive)
GI50 (NCI-H522): 85.1 µM (inactive)
GI50 (DLD-1): > 100 µM (inactive)
GI50 (TK-10): 57.4 µM (inactive)
GI50 (UACC-62): 17.3 µM (inactive)
GI50 (SNB-78): > 100 µM (inactive)
GI50 (OVCAR-5): > 100 µM (inactive)
GI50 (MOLT-4): 23 µM (inactive)
GI50 (OVCAR-4): 55.7 µM (inactive)
GI50 (SF-268): 80.4 µM (inactive)
GI50 (HOP-92): 92.9 µM (inactive)
GI50 (KM12): 33.8 µM (inactive)
GI50 (SF-295): 56.9 µM (inactive)
GI50 (KM-20L2): 32.5 µM (inactive)
GI50 (SNB-19): > 100 µM (inactive)
GI50 (LXFL 529): 42.6 µM (inactive)
GI50 (NCI-H460): > 100 µM (inactive)
GI50 (Malme-3M): > 100 µM (inactive)
GI50 (SW-620): 50.9 µM (inactive)
GI50 (SK-MEL-2): 27.6 µM (inactive)
GI50 (CAKI-1): 57.5 µM (inactive)
GI50 (RXF 393): 66.8 µM (inactive)
GI50 (OVCAR-3): > 100 µM (inactive)
GI50 (SK-OV-3): > 100 µM (inactive)
GI50 (U-251): > 100 µM (inactive)
GI50 (DMS-273): 66.8 µM (inactive)
GI50 (A549): > 100 µM (inactive)
GI50 (NCI-H23): > 100 µM (inactive)
GI50 (UO-31): > 100 µM (inactive)
GI50 (NCI-H226): > 100 µM (inactive)
GI50 (SF-539): > 100 µM (inactive)
GI50 (DMS-114): 48.5 µM (inactive)
GI50 (HCC 2998): 47 µM (inactive)
GI50 (SN12C): 91.6 µM (inactive)
GI50 (XF498): > 100 µM (inactive)
GI50 (SK-MEL-28): > 100 µM (inactive)
GI50 (SNB-75): > 100 µM (inactive)
GI50 (HOP-62): 65.3 µM (inactive)
GI50 (ACHN): 31.5 µM (inactive)
GI50 (SR): > 100 µM (inactive)
GI50 (IGROV-1): > 100 µM (inactive)
GI50 (M14): 57 µM (inactive)
GI50 (HCT-15): 52.8 µM
GI50 (CCRF-CEM): 45.8 µM (inactive)
GI50 (HL-60): 17.8 µM (inactive)
GI50 (SK-MEL-5): > 100 µM (inactive)
GI50 (HCT-116): 71.4 µM (inactive)
GI50 (A498): > 100 µM (inactive)
GI50 (COLO 205): > 100 µM (inactive)
GI50 (HT-29): 53.8 µM (inactive)
GI50 (OVCAR-8): 78.5 µM (inactive)
GI50 (UACC-257): > 100 µM (inactive)
GI50 (HOP-18): > 100 µM (inactive)
GI50 (K562): 30.3 µM (inactive)
GI50 (EKVX): > 100 µM (inactive)
GI50 (LOX IMVI): 77.3 µM (inactive)
